Test results published in PubChem BioAssay AID248 (DTP/NCI, 2004).
Toxic doses and inconclusive results are not listed. No stated cut-off is given here; in the data, active means T/C of 150% or more; inactive means T/C below 125%.

System: L1210 leukemia ip in BDF1 mice, survival T/C
Test: NCI In Vivo Anticancer Drug Screen. Data for tumor model L1210 Leukemia (intraperitoneal) in B6D2F1 (BDF1) mice
Settings: endpoint: mean survival time, higher = longer survival
How it was run: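 Antitumor effect is assessed in tumor-bearing animals. Survival in the compound arm is compared with a vehicle-dosed control arm and expressed as their quotient.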

[1] = dose: 50.0 mg/kg/injection, schedule: Q01DX001 (ip), vehicle: carboxymethylcellulose (CMC)
[2] = dose: 100.0 mg/kg/injection, schedule: Q01DX001 (ip), vehicle: carboxymethylcellulose (CMC)
[3] = dose: 200.0 mg/kg/injection, schedule: Q01DX001 (ip), vehicle: carboxymethylcellulose (CMC)
[4] = dose: 400.0 mg/kg/injection, schedule: Q01DX001 (ip), vehicle: carboxymethylcellulose (CMC)
[5] = dose: 100.0 mg/kg/injection, schedule: Q01DX009 (ip), vehicle: Klucel (hydroxypropylcellulose) (HPC)
[6] = dose: 200.0 mg/kg/injection, schedule: Q01DX009 (ip), vehicle: Klucel (hydroxypropylcellulose) (HPC)
[7] = dose: 400.0 mg/kg/injection, schedule: Q01DX009 (ip), vehicle: Klucel (hydroxypropylcellulose) (HPC)
[8] = dose: 100.0 mg/kg/injection, schedule: Q04DX003 (ip), vehicle: Klucel (hydroxypropylcellulose) (HPC)
[9] = dose: 200.0 mg/kg/injection, schedule: Q04DX003 (ip), vehicle: Klucel (hydroxypropylcellulose) (HPC)
[10] = dose: 400.0 mg/kg/injection, schedule: Q04DX003 (ip), vehicle: Klucel (hydroxypropylcellulose) (HPC)
[11] = dose: 100.0 mg/kg/injection, schedule: Q01DX001 (ip), vehicle: saline
[12] = dose: 200.0 mg/kg/injection, schedule: Q01DX001 (ip), vehicle: saline
[13] = dose: 400.0 mg/kg/injection, schedule: Q01DX001 (ip), vehicle: saline
[14] = dose: 100.0 mg/kg/injection, schedule: Q04DX003 (ip), vehicle: saline with Tween-80
[15] = dose: 200.0 mg/kg/injection, schedule: Q04DX003 (ip), vehicle: saline with Tween-80
[16] = dose: 400.0 mg/kg/injection, schedule: Q04DX003 (ip), vehicle: saline with Tween-80
[17] = dose: 75.0 mg/kg/injection, schedule: Q01DX001 (ip), vehicle: saline
[18] = dose: 100.0 mg/kg/injection, schedule: Q04DX002 (ip), vehicle: saline
[19] = dose: 200.0 mg/kg/injection, schedule: Q04DX002 (ip), vehicle: saline
[20] = dose: 100.0 mg/kg/injection, schedule: Q04DX002 (ip), vehicle: Klucel (hydroxypropylcellulose) (HPC)
[21] = dose: 400.0 mg/kg/injection, schedule: Q04DX002 (ip), vehicle: Klucel (hydroxypropylcellulose) (HPC)

Measured: T/C

[O-][N+](=Nc1cccc(Br)c1)c1cccc(Br)c1
inactive: [1] 101 % of control | [2] 104 % of control | [3] 101 % of control | [4] 117 % of control

CC(=O)Nc1cc2[nH]cnc2c(Br)n1
inactive: dose: 25.0 mg/kg/injection, schedule: Q01DX005 (ip), vehicle: saline 100 % of control | dose: 50.0 mg/kg/injection, schedule: Q01DX005 (ip), vehicle: saline 105 % of control | dose: 100.0 mg/kg/injection, schedule: Q01DX005 (ip), vehicle: saline 110 % of control

O=C(C[n+]1ccccc1Br)c1cccc2ccccc12
inactive: dose: 9.38 mg/kg/injection, schedule: Q01DX001 (ip), vehicle: other 103 % of control

CNC(=O)N(C)c1cc(N(C)C)nc(OC)n1
inactive: dose: 5.0 mg/kg/injection, schedule: Q01DX009 (ip), vehicle: Klucel (hydroxypropylcellulose) (HPC) 98 % of control | dose: 10.0 mg/kg/injection, schedule: Q01DX009 (ip), vehicle: Klucel (hydroxypropylcellulose) (HPC) 94 % of control | dose: 20.0 mg/kg/injection, schedule: Q01DX009 (ip), vehicle: Klucel (hydroxypropylcellulose) (HPC) 94 % of control

CCOc1cc(/C=N/NC(=S)Nc2ccccc2)ccc1O
inactive: [5] 98 % of control | [6] 105 % of control | [7] 94 % of control

CCOC(=O)/C(O)=C/c1nc2ccccc2nc1C
inactive: [8] 105 % of control | [9] 96 % of control | [10] 99 % of control

CCC1COP(=O)(c2ccccc2)OC1 (stereo unspecified)
inactive: [11] 103 % of control | [12] 103 % of control | [13] 100 % of control

CCCCNS(=O)(=O)c1ccc(NC(=O)c2ccc3ccccc3c2O)c([N+](=O)[O-])c1
inactive: [14] 90 % of control | [15] 88 % of control | [16] 88 % of control

O=C(O)C1(c2ccccc2)SCCS1
inactive: [14] 89 % of control | [15] 96 % of control | [16] 94 % of control

COc1ccccc1CNC1CCCCC1
inactive: [17] 92 % of control

CCOC(=O)/C(=C/c1ccc(OC)c(OC)c1)P(=O)(OCC)OCC
inactive: dose: 50.0 mg/kg/injection, schedule: Q01DX001 (ip), vehicle: saline 101 % of control | [11] 95 % of control

CC(CO)(CO)N=Cc1cc(Cl)ccc1O
inactive: [2] 91 % of control | [3] 96 % of control | [4] 109 % of control

O=C(NCc1ccccc1)Sc1ccccc1
inactive: dose: 87.5 mg/kg/injection, schedule: Q01DX001 (ip), vehicle: Klucel (hydroxypropylcellulose) (HPC) 96 % of control

CC/C(C)=C\CC/C(C)=C/COc1cccc(CC)c1
inactive: dose: 100.0 mg/kg/injection, schedule: Q04DX002 (ip), vehicle: saline with Tween-80 100 % of control | dose: 200.0 mg/kg/injection, schedule: Q04DX002 (ip), vehicle: saline with Tween-80 94 % of control | dose: 400.0 mg/kg/injection, schedule: Q04DX002 (ip), vehicle: saline with Tween-80 94 % of control

CCOC(=O)c1cnc(C)nc1Nc1ccccc1C
inactive: [8] 88 % of control | [9] 98 % of control | [10] 105 % of control

COc1ccccc1C(O)(c1ccccc1)c1ccccc1OC
inactive: [8] 92 % of control | [9] 98 % of control | [10] 97 % of control

N=C(N)C(N)=NCC(Br)CBr (stereo unspecified)
inactive: [18] 93 % of control | [19] 108 % of control

Cc1ccc(OCCO)cc1C
inactive: [20] 120 % of control | dose: 200.0 mg/kg/injection, schedule: Q04DX002 (ip), vehicle: Klucel (hydroxypropylcellulose) (HPC) 92 % of control | [21] 92 % of control

CC(C)CCS(=O)(=O)OCCCCOS(=O)(=O)CCC(C)C
inactive: [1] 109 % of control | [2] 104 % of control | [5] 106 % of control | [8] 105 % of control | [3] 101 % of control | [6] 102 % of control | [9] 105 % of control | [4] 103 % of control | [7] 109 % of control | [10] 106 % of control

CC(OC(=O)c1ccccc1)c1ccccc1 (stereo unspecified)
inactive: [5] 94 % of control | [8] 101 % of control | [6] 100 % of control | [9] 103 % of control | [7] 96 % of control | [10] 101 % of control

Cc1c[nH]c(=O)[nH]1
inactive: [18] 109 % of control | [19] 106 % of control | dose: 400.0 mg/kg/injection, schedule: Q04DX002 (ip), vehicle: saline 117 % of control

O=C(Nc1ccc(CN2CCOCC2)cc1)c1ccc(C(=O)Nc2ccc(CN3CCOCC3)cc2)cc1
inactive: dose: 37.5 mg/kg/injection, schedule: Q01DX Z (ip), vehicle: water 86 % of control | dose: 75.0 mg/kg/injection, schedule: Q01DX Z (ip), vehicle: water 91 % of control

Nc1cccn2ncnc12
inactive: [11] 103 % of control | [12] 104 % of control | [13] 97 % of control

CCC[CH2][Sn]([I])([CH2]C)[CH2]C
inactive: [20] 90 % of control | [21] 101 % of control

O=S1(=O)CCN(c2ccccc2CC(c2c[nH]c3ccccc23)c2c[nH]c3ccccc23)CC1
inactive: [11] 89 % of control | [12] 86 % of control

O=[N+]([O-])c1ccc2c(c1)P(=O)(O)c1cc([N+](=O)[O-])ccc1-2
inactive: [17] 96 % of control | dose: 150.0 mg/kg/injection, schedule: Q01DX001 (ip), vehicle: saline 95 % of control | dose: 300.0 mg/kg/injection, schedule: Q01DX001 (ip), vehicle: saline 98 % of control

CCOC(=O)c1ccc(N=NN(CCF)CCF)cc1
inactive: dose: 10.0 mg/kg/injection, schedule: Q01DX Z (ip), vehicle: saline 95 % of control | dose: 30.0 mg/kg/injection, schedule: Q01DX Z (ip), vehicle: saline 94 % of control | dose: 100.0 mg/kg/injection, schedule: Q01DX Z (ip), vehicle: saline 89 % of control | dose: 300.0 mg/kg/injection, schedule: Q01DX Z (ip), vehicle: saline 95 % of control

C/C=C/CC1C(=O)N(c2ccccc2)N(c2ccccc2)C1=O
inactive: dose: 25.0 mg/kg/injection, schedule: Q01DX009 (ip), vehicle: Klucel (hydroxypropylcellulose) (HPC) 106 % of control | dose: 50.0 mg/kg/injection, schedule: Q01DX009 (ip), vehicle: Klucel (hydroxypropylcellulose) (HPC) 95 % of control | [5] 97 % of control

CC(=O)OCC(=O)c1cc(C)n(C)c(=O)c1CN1C(=O)c2ccccc2C1=O
inactive: dose: 100.0 mg/kg/injection, schedule: Q01DX009 (ip), vehicle: saline with Tween-80 107 % of control | [14] 97 % of control | dose: 200.0 mg/kg/injection, schedule: Q01DX009 (ip), vehicle: saline with Tween-80 102 % of control | [15] 96 % of control | dose: 400.0 mg/kg/injection, schedule: Q01DX009 (ip), vehicle: saline with Tween-80 108 % of control | [16] 96 % of control

CN(CCN(C)S(=O)(=O)c1ccccc1)S(=O)(=O)c1ccccc1
inactive: dose: 75.0 mg/kg/injection, schedule: Q01DX009 (ip), vehicle: Klucel (hydroxypropylcellulose) (HPC) 94 % of control | dose: 150.0 mg/kg/injection, schedule: Q01DX009 (ip), vehicle: Klucel (hydroxypropylcellulose) (HPC) 107 % of control | dose: 300.0 mg/kg/injection, schedule: Q01DX009 (ip), vehicle: Klucel (hydroxypropylcellulose) (HPC) 95 % of control

S=c1[nH]nc(NC2CCCCC2)s1
inactive: dose: 100.0 mg/kg/injection, schedule: Q01DX009 (ip), vehicle: other 91 % of control | dose: 100.0 mg/kg/injection, schedule: Q04DX003 (ip), vehicle: saline 88 % of control | dose: 200.0 mg/kg/injection, schedule: Q04DX003 (ip), vehicle: saline 91 % of control | dose: 400.0 mg/kg/injection, schedule: Q04DX003 (ip), vehicle: saline 86 % of control

Nc1ncnc2c1c(-c1ncn[nH]1)cn2C1OC(CO)C(O)C1O (stereo unspecified)
inactive: dose: 0.09 mg/kg/injection, schedule: Q01DX009 (ip), vehicle: saline 119 % of control | dose: 0.19 mg/kg/injection, schedule: Q01DX009 (ip), vehicle: saline 119 % of control | dose: 0.39 mg/kg/injection, schedule: Q01DX005 (ip), vehicle: saline 119 % of control

O=NN1CCCCC1C(=O)O (stereo unspecified)
inactive: [11] 98 % of control | [12] 102 % of control

COc1cc([N+](=O)[O-])c2[nH]c(=O)ccc2c1
inactive: [2] 97 % of control | [3] 94 % of control | [4] 97 % of control
